Series [1] is described as follows: Collection of Cu^2+ ions from solution with the prepared bisphosphonates (Example 26). To be noted: 1.00 ppm Cu^2+; pH 3; 50 mg bisphosphonate in 50 ml. The procedure: (§1) A water solution (110 ml) containing known amount of single cationic element or elements, typically 0.5-200 ppm, was prepared from Merch Titrisol® standard solution. After adjusting pH by using acid (e.g. HCl or HNO3) or base (e.g. NaOH) to desired initial value, sample A (10 ml) was taken followed by adding 100 mg of selected solid complexation agent. The mixture was stirred at room temperature for 24 h and sample B (10 ml) was taken. Samples A and B were filtrated separately trough 0.2 μm syringe filter and the concentration of the studied element or elements in both solution was determined by using atomic absorption spectrophotometer. The expulsion percent was determined from the concentration differences between the sample solutions A and B.
A solution containing 1.00 ppm of Cu^2+ cations at pH 3 was prepared and 50 ml of that solution was treated with the desired solid bisphosphonate (50 mg) using the procedure described in general procedure. Collection-% was determined for the following compounds (Cu^2+ collection-% in parenthesis): 3a (16%), 3b (88%), 3c (93%), 4 (95%), 5a (20%), 5b (18%), 5c (85%), 6b (48%), 6c (100%), 6d (100%), 7a (88%), 7b (100%), 8b (85%), 8c (88%), 8d (94%), 8e (73%) and 9b (76%).

Series [2] in a line: Solubility of the compounds, molybdenum blue method, UV/Vis 880 nm (Example 6). In kind it is physicochemical. To be noted: saturated aqueous solution. The text has this:
The low solubility is achieved by using long carbon chain(s) or aromatic ring(s) in the bisphosphonate structure I. Advantageously, compound I contains 7-16 carbon atoms either in chain, branched chain or cyclic structure or in combination of these structural units between A and X, and preferably in the chain starting from the P-C-P bridging carbon and the number of heteroatomic functional groups excluding the phosphorous functionalities are limited to two or three groups. The solubility decreases even more if compound I contains functional groups which are capable to form twitter ions with each other. Typical examples of twitter ions are acids (e.g., —CO2H or —PO3H2) and bases (amines) in the same molecule. Solubilities of selected bisphosphonate compounds I were determined with UV/Vis spectrophotometer at 880 nm using molybdenum blue method (Finnish Standard Association SFS 3026: Determination of phosphate in water. Finnish Standard Association SFS, Helsinki Finland, 1986).
Solubilities of selected compounds were determined with UV/Vis Spectrophotometer at 880 nm using molybdenum blue method from saturated aqueous samples solutions (Finnish Standard Association SFS 3026: Determination of phosphate in water. Finnish Standard Association SFS, Helsinki Finland, 1986).

Series [3] is described as follows: Expulsion of Cu^2+, Ni^2+ and Fe^3+ without and with activated carbon (Example 9). To be noted: pH 3, without activated carbon. The procedure: as §1
Using the general procedure described above expulsion percent of Cu^2+, Ni^2+ and Fe^3+ cations were determined at pH 3, when compounds 2a, 2b, 5b, 6b and 6c were used as complexation agents. Experiments were repeated also by adding activated carbon (100 mg) to solution at the same time with the used complexation agent.

Series [4] in a line: Removal of Cr^3+ from acidic solution, TS 4 diluted 1:100 (Example 19). To be noted: TS 4 diluted 1:100, pH 3.67, 1.0 g agent in 50 ml, 24 h. The procedure:
A test solution containing 24000 mg/l of Na^+; 50-2000 mg/l of Ca^2+, Cr^3+, K^+ and Mg^2+; and trace amount of Al^3+, Fe^2/3+, Mn^2+, Ni^2+, Sr^2+, V^4+, and Zn^2+ cations were prepared.
TS 4 was diluted to 1:100 with water, pH (3.67) of the solution was determined and sample A was taken. A part (50 ml) of the diluted solution was treated with 1a, 6d or 7a (1.0 g) for 24 h with stirring at room temperature. After filtration trough 0.2 μm syringe filter, the expulsion per for Cr(III) was determined compared to original solution A. The results of expulsion per cents of Cr^3+ and some other elements are given in Table 13.

The mark [5] stands for this setting: read-out: mg/l P (solubility calculated as elemental phosphorus).
[6] abbreviates: read-out: mg/l (solubility calculated for whole molecule).

Each structure is given as a SMILES string. Where two headings read alike, the source gives them in different places.

As for `C[N+](C)(C)CCCCCCCCCCC(O)(P(=O)(O)O)P(=O)(O)O.[Cl-]` [Compound 8b, 11-Hydroxy-N,N,N-trimethyl-11,11-diphosphonoundecan-1-aminium chloride], the “Cu^2+ collection-%” value in series [1] came out at 85%.
On the same count and under the same terms, the figure for `O=C(O)CCCCCNCC(P(=O)(O)O)P(=O)(O)O` [Compound 8e, 6-((2,2-diphosphonoethyl)amino)hexanoic acid] is 73%.
Take `O=P(O)(O)C(O)(CCCCc1ccccc1)P(=O)(O)O` [Compound 5a, 1-Hydroxy-5-phenylpentane-1,1-diyldiphosphonic acid]: the “Cu^2+ collection-%” value in series [1] stood at 20%. In series [2] (setting [5]), the solubility was 1.8 mg/L.
As to `O=C(O)CCCCCCCCCCSCC(P(=O)(O)O)P(=O)(O)O` [Compound 8d, 11-((2,2-diphosphonoethyl)thio)undecanoic acid], the “Cu^2+ collection-%” value in series [1] came out at 94%.
For `Nc1ccc(CCCC(O)(P(=O)(O)O)P(=O)(O)O)cc1` [Compound 5b, 4-(4-Aminophenyl)-1-hydroxybutane-1,1-diyldiphosphonic acid], in series [3], the “Expulsion [%] Cu^2+” value amounted to 21.4%, the “Expulsion [%] Fe^3+” value was 56.3% and the “Expulsion [%] Ni^2+” value is 7.9%. Besides, in series [1], the “Cu^2+ collection-%” value turned out to be 18%. In addition, the solubility in series [2] (setting [5]) is 79 mg/L.
On to `CC(=O)NCCCCCCCCCCC(O)(P(=O)(O)O)P(=O)(O)O` [Compound 8c, 11-Acetamido-1-hydroxyundecane-1,1-diyldiphosphonic acid], for which the “Cu^2+ collection-%” value in series [1] worked out at 88%.
For `NCCCCCCCCCC(O)(P(=O)(O)O)P(=O)(O)O` [Compound 1d, 10-Amino-1-hydroxydecane-1,1-diyldiphosphonic acid], the figures for the solubility in series [2] (setting [6]) and in series [2] (setting [5]) were 227 mg/L and 40 mg/L, respectively.
Regarding `CCCCCCCC/C=C\CCCCCCCC(O)(P(=O)(O)O)P(=O)(O)O` [Compound 4, (Z)-1-Hydroxyoctadec-9-ene-1,1-diyldiphosphonic acid], the “Cu^2+ collection-%” value in series [1] was found to be 95%.
Regarding `O=P(O)(O)C(O)(CCCCCCc1ccccc1)P(=O)(O)O` [Compound 5c, 1-Hydroxy-7-phenylheptane-1,1-diyldiphosphonic acid], the “Cu^2+ collection-%” value in series [1] stood at 85%. In series [2] (setting [5]), the solubility was 0.2 mg/L.
In the case of `NCCCCCCCC(O)(P(=O)(O)O)P(=O)(O)O` [Compound 1b, 8-Amino-1-hydroxyoctane-1,1-diyldiphosphonic acid], the solubility in series [2] (setting [6]) was 2220 mg/L; in series [2] (setting [5]), 426 mg/L.
Consider `CCCCCCCCCC(N)(P(=O)(O)O)P(=O)(O)O` [Compound 7b, 1-Aminodecane-1,1-diyldiphosphonic acid], for which the “Cu^2+ collection-%” value in series [1] was 100%. Also, the solubility in series [2] (setting [5]) is 0.05 mg/L.
On to `CCCCCCCCC(N)(P(=O)(O)O)P(=O)(O)O` [Compound 7a, 1-Aminononane-1,1-diyldiphosphonic acid], for which the “Expulsion [%] Cr^3+” value in series [4] is recorded as 85%. Further, the “Cu^2+ collection-%” value in series [1] is 88%. Besides, the solubility in series [2] (setting [5]) is 0.08 mg/L.
Regarding `CNCCCCCCCCCCC(O)(P(=O)(O)O)P(=O)(O)O` [Compound 2a, 1-Hydroxy-11-(methylamino)undecane-1,1-diyldiphosphonic acid], in series [3], the “Expulsion [%] Cu^2+” value was 16.4%, the “Expulsion [%] Fe^3+” value turned out to be 44.7% and the “Expulsion [%] Ni^2+” value is 13.3%. The solubility in series [2] (setting [6]) is 594 mg/L. Moreover, the solubility in series [2] (setting [5]) was 97 mg/L.
Consider `CCCCCCCCC(O)(P(=O)(O)O)P(=O)(O)O` [Compound 3b, 1-Hydroxynonane-1,1-diyldiphosphonic acid], for which the “Cu^2+ collection-%” value in series [1] is listed as 88%. The solubility in series [2] (setting [6]) is 5 mg/L; in series [2] (setting [5]) it was 1 mg/L.
Turning to `CCCCCCCCCCCCC(P(=O)(O)O)P(=O)(O)O` [Compound 6c, Tridecane-1,1-diyldiphosphonic acid], in series [3], the “Expulsion [%] Cu^2+” value worked out at 20.8%, the “Expulsion [%] Fe^3+” value came to 19.0% and the “Expulsion [%] Ni^2+” value came to 20.8%. In addition, in series [1], the “Cu^2+ collection-%” value is given as 100%. For the same compound, the solubility in series [2] (setting [5]) is 0.2 mg/L.
With `CCCCCCCCCCC(P(=O)(O)O)P(=O)(O)O` [Compound 6b, Undecane-1,1-diyldiphosphonic acid], in series [3], the “Expulsion [%] Cu^2+” value was found to be 1.3%, the “Expulsion [%] Fe^3+” value is on record as 3.9% and the “Expulsion [%] Ni^2+” value is on record as 17.2%. Moreover, the “Cu^2+ collection-%” value in series [1] turned out to be 48%. For the same compound, the solubility in series [2] (setting [5]) was 0.7 mg/L.
For `O=P(O)(O)C(O)(CCCCCCCCCCO)P(=O)(O)O` [Compound 2b, 1,11-Dihydroxyundecane-1,1-diyldiphosphonic acid], in series [3], the “Expulsion [%] Cu^2+” value is given as 100.0%, the “Expulsion [%] Fe^3+” value is recorded as 92.6% and the “Expulsion [%] Ni^2+” value was 6.9%. Besides, the solubility in series [2] (setting [6]) was 22900 mg/L. For the same compound, in series [2] (setting [5]), the solubility is 3870 mg/L.
Consider `NCCCCCCCCC(O)(P(=O)(O)O)P(=O)(O)O` [Compound 1c, 9-Amino-1-hydroxynonane-1,1-diyldiphosphonic acid], for which the solubility was 2180 mg/L in series [2] (setting [6]) and 400 mg/L in series [2] (setting [5]).
In the case of `CCCCCCCCCCC(O)(P(=O)(O)O)P(=O)(O)O` [Compound 3c, 1-Hydroxyundecane-1,1-diyldiphosphonic acid], in series [1], the “Cu^2+ collection-%” value stood at 93%. Besides, in series [2] (setting [5]), the solubility was 0.3 mg/L.
For the compound `CCCCCCCCCCCC(=O)OC(C)(P(=O)(O)O)P(=O)(O)O` [Compound 9b, 1-(Dodecanoyloxy)ethane-1,1-diyldiphosphonic acid], in series [1], the “Cu^2+ collection-%” value was 76%.
For the compound `NCCCCCCCCCCCCCCCC(O)(P(=O)(O)O)P(=O)(O)O` [Compound 1f, 16-Amino-1-hydroxyhexadecane-1,1-diyldiphosphonic acid], the solubility was 42 mg/L in series [2] (setting [6]) and 6 mg/L in series [2] (setting [5]).
For `CCCCCCCCCCCCCCCCC(P(=O)(O)O)P(=O)(O)O` [Compound 6d, Heptadecane-1,1-diyldiphosphonic acid], the “Expulsion [%] Ca^2+” value in series [4] (Ca^2+) worked out at 11%. Also, in series [4], the “Expulsion [%] Cr^3+” value was 100%. For the same compound, in series [4] (K^+), the “Expulsion [%] K^+” value is 52%. Moreover, the “Expulsion [%] Mg^2+” value in series [4] (Mg^2+) came to 80%. The “Expulsion [%] Na^+” value in series [4] (Na^+) is 39%. The “Cu^2+ collection-%” value in series [1] is recorded as 100%. The solubility in series [2] (setting [5]) was 0.03 mg/L.
As to `CCCCCC(O)(P(=O)(O)O)P(=O)(O)O` [Compound 3a, 1-Hydroxyhexane-1,1-diyldiphosphonic acid], in series [1], the “Cu^2+ collection-%” value is recorded as 16%. Moreover, the solubility in series [2] (setting [6]) was 54 mg/L; in series [2] (setting [5]), 12 mg/L.

(Values after patent US20140263071A1, “METHOD FOR COLLECTING METALS” (CHEMEC OY AB, priority 2011, published 2014).)
